The record followed here is publication PMC3668458 (Journal of neuroscience research, 2011).

The target of the assay is α4β2 nicotinic acetylcholine receptor (α4 subunit) (Homo sapiens, UniProt P17787+P43681). The assay is described as follows: whole-cell patch clamp, Schild plot analysis of inhibition of ACh currents. The format is cell-based.
Chain of α4β2 nicotinic acetylcholine receptor (α4 subunit) (P43681 27-627): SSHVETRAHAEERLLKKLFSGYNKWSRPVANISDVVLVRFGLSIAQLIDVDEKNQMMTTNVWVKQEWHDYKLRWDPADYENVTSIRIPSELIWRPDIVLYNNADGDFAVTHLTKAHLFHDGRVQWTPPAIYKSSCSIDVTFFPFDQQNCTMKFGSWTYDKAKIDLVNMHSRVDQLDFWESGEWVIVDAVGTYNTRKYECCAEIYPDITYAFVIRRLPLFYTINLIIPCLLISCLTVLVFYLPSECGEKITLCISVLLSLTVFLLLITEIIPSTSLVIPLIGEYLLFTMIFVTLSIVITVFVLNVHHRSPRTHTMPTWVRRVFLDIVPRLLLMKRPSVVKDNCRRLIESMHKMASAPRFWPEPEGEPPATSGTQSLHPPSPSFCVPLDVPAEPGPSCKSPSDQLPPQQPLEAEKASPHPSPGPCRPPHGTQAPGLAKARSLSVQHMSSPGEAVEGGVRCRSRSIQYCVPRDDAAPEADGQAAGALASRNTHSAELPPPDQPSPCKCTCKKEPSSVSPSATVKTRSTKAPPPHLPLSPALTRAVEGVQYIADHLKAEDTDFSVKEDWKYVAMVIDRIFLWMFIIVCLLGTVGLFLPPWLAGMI
Chain of α4β2 nicotinic acetylcholine receptor (α4 subunit) (P17787 26-502): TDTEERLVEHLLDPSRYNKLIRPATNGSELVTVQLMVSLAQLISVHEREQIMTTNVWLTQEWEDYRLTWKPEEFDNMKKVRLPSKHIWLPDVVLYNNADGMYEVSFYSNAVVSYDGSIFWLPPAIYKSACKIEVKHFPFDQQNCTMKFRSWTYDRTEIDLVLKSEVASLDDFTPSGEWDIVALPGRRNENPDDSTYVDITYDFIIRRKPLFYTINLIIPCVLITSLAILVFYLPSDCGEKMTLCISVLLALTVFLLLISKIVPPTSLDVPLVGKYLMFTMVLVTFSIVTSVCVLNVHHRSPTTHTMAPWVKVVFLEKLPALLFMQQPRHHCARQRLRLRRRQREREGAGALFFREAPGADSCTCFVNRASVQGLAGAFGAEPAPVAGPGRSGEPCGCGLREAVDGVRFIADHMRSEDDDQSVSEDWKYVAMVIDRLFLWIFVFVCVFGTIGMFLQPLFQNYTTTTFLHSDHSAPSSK

Take `O=[N+]([O-])NC1=NCCN1Cc1ccc(Cl)nc1` [IMI, imidacloprid]: the Kb was found to be 18.2 ± 0.9 µM.
